Square brackets hold non-standard residues; d marks the D form. Ends that are not written are not given here. Orn = NCCC[C@H](N)C(=O)O
Columns and labels:
Format in all cases: cell-based
S. aureus [1] = assay: MMC99% of modified peptides, S. aureus (Example 25); conditions: BHI diluted 1/100, pH approximately 6.7-6.9 (Table 21)
Method: (§1) In the examples, the minimal microbicidal concentrations (MMC) and minimal inhibitory concentrations (MIC) were determined as follows, unless otherwise specified in the examples. Bacterial or fungal strains were cultured in BHI medium over night at 37° C. A volume of the culture was transferred to a new tube with BHI and incubated for two more hours. Thereafter the cells were spun down and the pellet was suspended in BHI medium diluted 1/100 (1% BHI). The concentration of bacterial or fungal cells was spectrophotometrically determined at 650 nm. The microbial concentrations were also determined by viable counts. Peptides serially diluted in 1% BHI by twofold or tenfold steps were added in triplicate to the wells of a microtiterplate (200 μl per well). The bacterial or fungal cell solutions were added in 10 μl volumes to give a final concentration of approximately 1-5×10^5 cells per ml in the well. The microplate was incubated at 37° C. in a humid chamber for two hours. Thereafter 5 μl was taken from each well and added as a drop onto a blood agar plate and incubated over night at 37° C. The microplate was incubated for another 20 hours at 37° C. and thereafter analysed spectrophotometrically at 650 nm in a microplate reader (Emax, Molecular Devices, USA). The concentration of peptide causing a 99% reduction of the inoculum after 2 hours of incubation was defined as the MMC99%. The MIC value was defined as the concentration giving no increase in the absorbance value above the background level after 20 hours of incubation.
(§2) In this example the fungicidal, and bactericidal effects of the different peptides obtained in examples 18-21 were studied. C. albicans, E. coli and S. aureus, respectively, were incubated in BHI medium diluted 1/100, with a pH of approximately 6.7-6.9. The concentration of each peptide needed to kill 99% of the microorganisms (MMC99%) was determined.

C. glabrata = assay: fungicidal activity MMC99%, C. glabrata (Example 27); conditions: BHI diluted 1/100 (Table 23)
Method: as §1
(§3) In this example the fungicidal activity of three of the peptides according to the invention was studied, and tested against three different fungi. The fungi were incubated in BHI medium diluted 1/100. The concentration of each peptide needed to kill 99% of the fungi (MMC99%) was determined.

C. neoformans = assay: fungicidal activity MMC99%, C. neoformans (Example 27); conditions: BHI diluted 1/100 (Table 23)
Method: as §1, with “The bacterial or fungal cell solutions were added in 10 μl volumes to give a final concentration of approximately 1-5×10^5 cells per ml in the well. The microplate was incubated at 37° C. in a humid chamber for two hours. Thereafter 5 μl was taken from each well and added as a drop onto a blood agar plate and incubated over night at 37° C.” left out, “The concentration of peptide causing a 99% reduction of the inoculum after 2 hours of incubation was defined as the MMC99%.” left out
In this example the fungicidal activity of three of the peptides according to the invention was studied, and tested against three different fungi. […] The concentration of each peptide needed to kill 99% of the fungi (MMC99%) was determined.

C. albicans [2] = assay: fungicidal activity MMC99%, C. albicans (Example 27); conditions: BHI diluted 1/100 (Table 23)
Method: as §1, §3

E. coli O6K5 = assay: microbicidal activity MMC99%, E. coli O6K5 (Example 28); conditions: E. coli O6K5 (Table 24)
How it was run: (§4)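 Peptides serially diluted in 1% BHI were incubated with E. coli O6K5 or C. albicans (~1-5×10^5 cells/ml) for 2 h at 37 °C, then spotted on blood agar overnight. MMC99% was the peptide concentration causing 99% reduction of the inoculum.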

E. coli [3] = assay: MMC99% of modified peptides, E. coli (Example 25); conditions: BHI diluted 1/100, pH approximately 6.7-6.9 (Table 21)
Method: as §1, §2

C. albicans [4] = assay: microbicidal activity MMC99%, C. albicans (Example 28); conditions: C. albicans (Table 24)
How it was run: as §4

C. albicans [5] = assay: MMC99% of modified peptides, C. albicans (Example 25); conditions: BHI diluted 1/100, pH approximately 6.7-6.9 (Table 21)
Method: as §1, §2

S. aureus [6] = assay: killing of bacteria at fixed peptide concentration, S. aureus (Example 12); conditions: peptide 25 μg/ml
Method: (§5) In this example, the peptides according to the invention were used to study the effect on the killing of different bacteria.
(§6) The peptides were used at a concentration of 25 μg/ml.

C. albicans (ATCC64549) = tested on: C. albicans (ATCC64549)
How it was run: (§7)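 Microbes at ~1–5×10^5 cells/mL in 1% BHI exposed to peptides (1, 10, 25, 100 µg/ml) at 37 °C. MMC99%: concentration killing 99% of inoculum after 2 h, by spotting onto blood agar. MIC: no absorbance rise at 650 nm above background after a further 20 h.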

E. coli O6 = tested on: E. coli O6
How it was run: as §7

K. pneumoniae = assay: killing of bacteria at fixed peptide concentration, K. pneumoniae (Example 12); conditions: peptide 25 μg/ml
Method: as §5, §6

P. aeruginosa = assay: killing of bacteria at fixed peptide concentration, P. aeruginosa (Example 12); conditions: peptide 25 μg/ml
Method: as §5, §6

[7] = tested on: C. albicans yeast cells (ATCC64549); assay: killing and growth inhibition of C. albicans at pH 4.5 (Example 11); parameters: key to C. albicans inhibition (OD650): + = no increase in OD650 is seen; − = OD650 continues to increase; conditions: pH 4.5, 1% BHI, 25 μg/ml of the peptide
How it was run: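 Yeast cells exposed 2 h at pH 4.5 to 25 µg/ml peptide in 1% BHI, then plated on blood agar. Killing scored as 100% and 99% fungicidal effect; growth inhibition read as no OD650 increase after a further 18 h.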

E. coli [8] = assay: MMC99% of modified peptides, E. coli (Example 26); conditions: BHI diluted 1/100, pH approximately 6.7-6.9 (Table 22)
Method: as §1
as §2, with “example 22” for “examples 18-21”

S. epidermis = assay: killing of bacteria at fixed peptide concentration, S. epidermis (Example 12); conditions: peptide 25 μg/ml
Method: as §5, §6

S. aureus [9] = assay: MMC99% of modified peptides, S. aureus (Example 26); conditions: BHI diluted 1/100, pH approximately 6.7-6.9 (Table 22)
Method: as §1
as §2, with “example 22” for “examples 18-21”

C. albicans [10] = assay: MMC99% of modified peptides, C. albicans (Example 26); conditions: BHI diluted 1/100, pH approximately 6.7-6.9 (Table 22)
Method: as §1
as §2, with “example 22” for “examples 18-21”

E. faecalis = assay: killing of bacteria at fixed peptide concentration, E. faecalis (Example 12); conditions: peptide 25 μg/ml
Method: as §5, §6

C-F-Q-W-Orn-R-N-M-R-K-V-R (CFQW[Orn]RNMRKVR) [SEQ. ID. NO. 87]
MMC99% (S. aureus [1]): ≦3.5 | MMC99% (C. glabrata): >50 | MMC99% (C. neoformans): 3.1 | MMC99% (C. albicans [2]): 6.3 | MMC99% (E. coli O6K5): 5 | MMC99% (E. coli [3]): 6 | MMC99% (C. albicans [4]): 5 | MMC99% (C. albicans [5]): 3

CFQWQRNMRKVR [Peptide 46, C-F-Q-W-Q-R-N-M-R-K-V-R]
killing of bacteria: S. aureus (S. aureus [6]): + (+ = 99% of the bacteria are killed) | MMC99% (S. aureus [1]): 7 | MIC (C. albicans (ATCC64549); ATCC64549): 10 µg/mL | MMC99% (C. albicans (ATCC64549); C. albicans, tested at 1, 10, 25 and 100 μg/ml of peptide): 10 µg/mL | MMC99% (E. coli O6; E. coli O6, tested at 1, 10, 25 and 100 μg/ml of peptide): 10 µg/mL | MIC (E. coli O6; O6): 10 µg/mL | killing of bacteria: K. pneumoniae (K. pneumoniae): + (+ = 99% of the bacteria are killed) | killing of bacteria: P. aeruginosa (P. aeruginosa): + (+ = 99% of the bacteria are killed) | MMC99% (C. glabrata): 50 | C. albicans inhibition (OD650) ([7]; OD650 after an additional 18 hours): + | C. albicans killing: 99% ([7]; 2 hours): + (+ = 100/99% of the bacteria are killed) | C. albicans killing: 100% ([7]; 2 hours): + (+ = 100/99% of the bacteria are killed) | MMC99% (C. albicans [2]): 12.5 | MMC99% (E. coli O6K5): 10 | MMC99% (E. coli [8]): 6 | MMC99% (E. coli [3]): 12 | killing of bacteria: S. epidermis (S. epidermis): + (+ = 99% of the bacteria are killed) | MMC99% (S. aureus [9]): 12 | MMC99% (C. albicans [10]): 12 | MMC99% (C. albicans [4]): 10 | killing of bacteria: E. faecalis (E. faecalis): + (+ = 99% of the bacteria are killed) | MMC99% (C. albicans [5]): 12

— patent US7803757B2, “Peptides based on the sequence of human lactoferrin and their use” (PharmaSurgics in Sweden AB, priority 1998, dated 2010)
